Where two headings read alike, the source gives them in different places.
Key:
PRMI-8226 = assay: NCI antitumor screen (SRB); assay type: cell-based; details: Homo sapiens; for inhibition at 10 µM: one dose 10 µM, read-out: Growth inhibition percentage (GI%)
EKVX = assay: NCI antitumor screen (SRB); assay type: cell-based; details: Homo sapiens; for inhibition at 10 µM: one dose 10 µM, read-out: Growth inhibition percentage (GI%)
NCI-H226 = assay: NCI antitumor screen (SRB); assay type: cell-based; details: Homo sapiens; for inhibition at 10 µM: one dose 10 µM, read-out: Growth inhibition percentage (GI%)
HT29 = assay: NCI antitumor screen (SRB); assay type: cell-based; details: Homo sapiens; for inhibition at 10 µM: HT-29, one dose 10 µM, read-out: Growth inhibition percentage (GI%)
SF-268 [1] = assay: NCI antitumor screen (SRB); assay type: cell-based; details: Homo sapiens; for inhibition at 10 µM: one dose 10 µM, read-out: Growth inhibition percentage (GI%)
SK-MEL-2 [2] = assay: NCI antitumor screen (SRB); assay type: cell-based; details: Homo sapiens
UACC-257 = assay: NCI antitumor screen (SRB); assay type: cell-based, human; details: for inhibition at 10 µM: read-out: Growth inhibition percentage (GI%)
IGROV1 = assay: NCI antitumor screen (SRB); assay type: cell-based; details: Homo sapiens; for inhibition at 10 µM: IGROV-1, one dose 10 µM, read-out: Growth inhibition percentage (GI%)
NCI/ADR-RES = assay: NCI antitumor screen (SRB); assay type: cell-based; details: Homo sapiens; for inhibition at 10 µM: one dose 10 µM, read-out: Growth inhibition percentage (GI%)
DU-145 [3] = assay: NCI antitumor screen (SRB); assay type: cell-based; details: Homo sapiens; for inhibition at 10 µM: one dose 10 µM, read-out: Growth inhibition percentage (GI%)
[4] = tested on: colon cancer tumour cell lines; details: cited from earlier work; for GI50: read-out: GI50 (subpanel average), reference drugs, ref https://dtp.cancer.gov/dtpstandard/dwindex/index.jsp; for TGI (subpanel average): reference drugs, ref https://dtp.cancer.gov/dtpstandard/dwindex/index.jsp
[5] = tested on: melanoma tumour cell lines; details: cited from earlier work; for GI50: read-out: GI50 (subpanel average), reference drugs, ref https://dtp.cancer.gov/dtpstandard/dwindex/index.jsp; for TGI (subpanel average): reference drugs, ref https://dtp.cancer.gov/dtpstandard/dwindex/index.jsp
[6] = tested on: renal cancer tumour cell lines; details: cited from earlier work; for GI50: read-out: GI50 (subpanel average), reference drugs, ref https://dtp.cancer.gov/dtpstandard/dwindex/index.jsp; for TGI (subpanel average): reference drugs, ref https://dtp.cancer.gov/dtpstandard/dwindex/index.jsp
HL60 cells = assay: Cell cycle analysis (PI, flow cytometry); assay type: cell-based, human; details: HL60, 10.0 µM, 24 h
Description: Antitumor agents can induce apoptosis by activating signalling pathways, leading to G2/M phase arrest[73]^,[74]. Flow cytometry is used to measure cell growth in different cell cycle phases (pre-G1, G1, S, and G2/M)[73]^,[74]. […]. We used the solvent DMSO as a negative control. Briefly, we incubated HL60 cells with 10 µM compounds 6, 9, 16, and 20 for 24 h. Compounds 6, 9, 16, and 20 interfered with the normal cell cycle of HL60 cells. […] […].
Cell cycle analysis was carried out similar to our previous report using the Leukaemia HL-60 cell line stained with the DNA fluorochrome PI and analysed by FACSCalibur flow cytometer[40]^,[74].
Using a method similar to that of our previous report, cell cycle analysis was carried out using Leukemia HL-60 cell line, stained with the DNA fluorochrome PI, and analyzed by FACSCalibur flow cytometer. Leukemia HL-60 cell was seeded at a density of 2 × 10^5 cells/well and incubated for 24 h in six-well plates. Fetal bovine serum (10%) was added, and the cells were incubated at 37°C in an atmosphere of 5% CO2. The medium was replaced with 1% (v/v) dimethyl sulfoxide (DMSO), containing 10.0 μM of compound 9. […]
Afterward, […]
the samples were analyzed using a FACSCalibur flow cytometer. […]
(AA) to PGH2. […]

SR = tested on: SR; parameters: method as in https://dtp.cancer.gov/dtpstandard/dwindex/index.jsp; details: reference drugs, ref https://dtp.cancer.gov/dtpstandard/dwindex/index.jsp; cited from earlier work
HOP-62 = tested on: HOP-62; parameters: method as in https://dtp.cancer.gov/dtpstandard/dwindex/index.jsp; details: reference drugs, ref https://dtp.cancer.gov/dtpstandard/dwindex/index.jsp; cited from earlier work
NCI-H460 = tested on: NCI-H460; parameters: method as in https://dtp.cancer.gov/dtpstandard/dwindex/index.jsp; details: reference drugs, ref https://dtp.cancer.gov/dtpstandard/dwindex/index.jsp; cited from earlier work
HCT-15 = tested on: HCT-15; parameters: method as in https://dtp.cancer.gov/dtpstandard/dwindex/index.jsp; details: reference drugs, ref https://dtp.cancer.gov/dtpstandard/dwindex/index.jsp; cited from earlier work
KM12 = tested on: KM12; parameters: method as in https://dtp.cancer.gov/dtpstandard/dwindex/index.jsp; details: reference drugs, ref https://dtp.cancer.gov/dtpstandard/dwindex/index.jsp; cited from earlier work
SF-268 [7] = tested on: SF-268; parameters: method as in https://dtp.cancer.gov/dtpstandard/dwindex/index.jsp; details: reference drugs, ref https://dtp.cancer.gov/dtpstandard/dwindex/index.jsp; cited from earlier work
SF-295 = tested on: SF-295; parameters: method as in https://dtp.cancer.gov/dtpstandard/dwindex/index.jsp; details: reference drugs, ref https://dtp.cancer.gov/dtpstandard/dwindex/index.jsp; cited from earlier work
LOX IMVI = tested on: LOX IMVI; parameters: method as in https://dtp.cancer.gov/dtpstandard/dwindex/index.jsp; details: reference drugs, ref https://dtp.cancer.gov/dtpstandard/dwindex/index.jsp; cited from earlier work
SK-MEL-2 [8] = tested on: SK-MEL-2; parameters: method as in https://dtp.cancer.gov/dtpstandard/dwindex/index.jsp; details: reference drugs, ref https://dtp.cancer.gov/dtpstandard/dwindex/index.jsp; cited from earlier work
UACC-62 = tested on: UACC-62; parameters: method as in https://dtp.cancer.gov/dtpstandard/dwindex/index.jsp; details: reference drugs, ref https://dtp.cancer.gov/dtpstandard/dwindex/index.jsp; cited from earlier work
OVCAR-5 = tested on: OVCAR-5; parameters: method as in https://dtp.cancer.gov/dtpstandard/dwindex/index.jsp; details: reference drugs, ref https://dtp.cancer.gov/dtpstandard/dwindex/index.jsp; cited from earlier work
SK-OV-3 = tested on: SK-OV-3; parameters: method as in https://dtp.cancer.gov/dtpstandard/dwindex/index.jsp; details: reference drugs, ref https://dtp.cancer.gov/dtpstandard/dwindex/index.jsp; cited from earlier work
SN12C = tested on: SN12C; parameters: method as in https://dtp.cancer.gov/dtpstandard/dwindex/index.jsp; details: reference drugs, ref https://dtp.cancer.gov/dtpstandard/dwindex/index.jsp; cited from earlier work
TK-10 = tested on: TK-10; parameters: method as in https://dtp.cancer.gov/dtpstandard/dwindex/index.jsp; details: reference drugs, ref https://dtp.cancer.gov/dtpstandard/dwindex/index.jsp; cited from earlier work
DU-145 [9] = tested on: DU-145; parameters: method as in https://dtp.cancer.gov/dtpstandard/dwindex/index.jsp; details: reference drugs, ref https://dtp.cancer.gov/dtpstandard/dwindex/index.jsp; cited from earlier work
[10] = SK-MEL-2, one dose 10 µM, read-out: Growth inhibition percentage (GI%)
[11] = Homo sapiens, UACC-257, one dose 10 µM
[12] = read-out: LC50 (subpanel average), reference drugs, ref https://dtp.cancer.gov/dtpstandard/dwindex/index.jsp
[13] = SK-MEL-2, read-out: Growth inhibition percentage (GI%)
[14] = five concentrations 0.01-100 µM

| SMILES | inhibition at 10 µM (PRMI-8226) [%] | inhibition at 10 µM (EKVX) [%] | inhibition at 10 µM (NCI-H226) [%] | inhibition at 10 µM (HT29) [%] | inhibition at 10 µM (SF-268 [1]) [%] | inhibition at 10 µM (SK-MEL-2 [2]; [10]) [%] | inhibition at 10 µM (UACC-257; [11]) [%] | inhibition at 10 µM (IGROV1) [%] | inhibition at 10 µM (NCI/ADR-RES) [%] | inhibition at 10 µM (DU-145 [3]) [%] | GI50 [4] [nM] | TGI (subpanel average) [4] [nM] | GI50 [5] [nM] | TGI (subpanel average) [5] [nM] | GI50 [6] [nM] | inhibition at 10 µM (SK-MEL-2 [2]; [13]) [%] | %G0-G1 (HL60 cells) [%] | %G2-M (HL60 cells) [%] | %Pre-G1 (HL60 cells) [%] | %S (HL60 cells) [%] | also measured |
| --- | --- | --- | --- | --- | --- | --- | --- | --- | --- | --- | --- | --- | --- | --- | --- | --- | --- | --- | --- | --- | --- |
| O=c1[nH]cc(F)c(=O)[nH]1 [Compound 5-Fu, 5-fluorouracil, reference compound] | 58.6 | 41.6 | 30.5 | 72.9 | 41 | < 10 | 80.5 | 48.8 | 52.4 | 64.5 | 270 | 51410 | 7830 | 61570 | 930 | – | – | – | – | – | CC50 [4, 12]: 89300 nM; CC50 [5, 12]: 95400 nM; CC50 [6, 12]: > 100000 nM; TGI (subpanel average) [6]: 46250 nM |
| CS(=O)(=O)c1ccc(C(=O)NN=Cc2cccc3ccccc23)cc1 [Compound 6, 4-(Methylsulfonyl)-N'-(naphthalen-1-ylmethylene)benzohydrazide] | 12.3 | 12.6 | 16.3 | 50.5 | 14.3 | – | 58.9 | 36.8 | 26.5 | 11.2 | – | – | – | – | – | 52.3 | 48.31 | 23.27 | 12.57 | 28.42 | – |
| Cc1ccc(C=NNC(=O)c2ccc(S(C)(=O)=O)cc2)cc1 [Compound 9, N'-(4-Methylbenzylidene)-4-(methylsulfonyl)benzohydrazide] | < 10 | < 10 | < 10 | 17.7 | < 10 | – | 28.4 | 12.3 | 14.6 | < 10 | – | – | – | – | – | 19.8 | 43.15 | 29.44 | 16.89 | 27.41 | – |
| CS(=O)(=O)c1ccc(C(=O)N/N=C/c2ccccc2O)cc1 [Compound 16] | 51.3 | 74.2 | 44.8 | 56.4 | 61.6 | – | 77.4 | 59 | 70.1 | 59.6 | – | – | – | – | – | 60 | 39.42 | 38.09 | 22.41 | 22.49 | – |
| CCN(CC)c1ccc(/C=N/NC(=O)c2ccc(S(C)(=O)=O)cc2)c(O)c1 [Compound 20] | 79 | 84.5 | 77.4 | 78.2 | 78.2 | 80.5 | – | 78.8 | 82.2 | 75.5 | – | – | – | – | – | – | 36.28 | 34.29 | 24.31 | 29.43 | GI50 (PRMI-8226; [14]): 297 nM; GI50 (EKVX; [14]): 162 nM; GI50 (NCI-H226; [14]): 73 nM; GI50 (HT29; HT-29, five concentrations 0.01-100 µM): 297 nM; GI50 (SF-268 [1]; [14]): 78.9 nM; GI50 (SK-MEL-2 [2]; SK-MEL-2, five concentrations 0.01-100 µM): 307 nM; inhibition at 10 µM (UACC-257; Homo sapiens, UACC-257, UACC-257, one dose 10 µM): 100%; GI50 (UACC-257; Homo sapiens, UACC-257, five concentrations 0.01-100 µM): 340 nM; Growth inhibition percentage (GI%) (UACC-257; UACC-257, one dose 10 µM): >100%; GI50 (IGROV1; IGROV-1, five concentrations 0.01-100 µM): 196 nM; GI50 (NCI/ADR-RES; [14]): 324 nM; GI50 (DU-145 [3]; [14]): 144 nM |
| COc1cc2ncnc(Nc3ccc(F)c(Cl)c3)c2cc1OCCCN1CCOCC1 [Gefitinib, gefitinib] | – | – | – | – | – | – | – | – | – | – | 5230 | 18470 | 3680 | 12490 | 1410 | – | – | – | – | – | GI50 (SR): 3160 nM; GI50 (HOP-62): 3160 nM; GI50 (NCI-H460): 3160 nM; GI50 (HCT-15): 3980 nM; GI50 (KM12): 10000 nM; GI50 (SF-268 [7]): 2510 nM; GI50 (SF-295): 10000 nM; GI50 (LOX IMVI): 3160 nM; GI50 (SK-MEL-2 [8]): 10000 nM; GI50 (UACC-62): 2000 nM; GI50 (OVCAR-5): 3980 nM; GI50 (SK-OV-3): 1000 nM; GI50 (SN12C): 1260 nM; GI50 (TK-10): 794 nM; GI50 (DU-145 [9]): 1580 nM; TGI (subpanel average) [6]: 12500 nM |

— PMC8288134, “Synthesis, potential antitumor activity, cell cycle analysis, and multitarget mechanisms of novel hydrazones incorporating a 4-methylsulfonylbenzene scaffold: a molecular docking study” (Journal of Enzyme Inhibition and Medicinal Chemistry, 2021)
